Laboratory results: article PMC7501296, “Rapid and direct control of target protein levels with VHL-recruiting dTAG molecules” (Nature Communications, 2020)
Where two headings read alike, the source gives them in different places. Each block holds one molecule with its values, some of them ahead of it.

What was measured:
[1] = target: T1, FKBP12^F36V-KRAS^G12V (Homo sapiens, UniProt P01116+P62942, F37V/G12V); assay: Immunoblot of PATU-8902 FKBP12F36V-KRASG12V; KRAS-/- clone; type: cell-based; conditions: time-course
T1 construct: KRAS G12V (fusion partner, same polypeptide); expressed in transfected cells
T1 sequence (P62942+P01116 fused P62942:F37V/P01116:G12V): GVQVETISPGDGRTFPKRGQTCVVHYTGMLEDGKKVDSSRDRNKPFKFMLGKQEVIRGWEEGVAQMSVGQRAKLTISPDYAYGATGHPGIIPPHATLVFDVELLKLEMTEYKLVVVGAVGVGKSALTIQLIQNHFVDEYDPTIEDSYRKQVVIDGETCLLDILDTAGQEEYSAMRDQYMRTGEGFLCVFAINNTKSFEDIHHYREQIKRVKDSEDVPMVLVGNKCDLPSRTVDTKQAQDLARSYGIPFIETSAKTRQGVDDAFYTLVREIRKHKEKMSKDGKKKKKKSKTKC
Method: PATU-8902 LACZ-FKBP12^F36V and FKBP12^F36V-KRAS^G12V; KRAS^−/− cells and 293T cells were lysed with RIPA buffer supplemented with cOmplete protease inhibitors (Roche), PhosSTOP phosphatase inhibitors (Roche), and 0.1% benzonase (Novagen). Proteins were separated using NuPAGE Bolt^TM Bis–Tris gels (Thermo Fisher Scientific) and transferred to nitrocellulose membranes, which were blocked with Odyssey Blocking Buffer (LI-COR) and incubated with primary antibodies overnight. Membranes were washed three times with TBS-T, incubated with the appropriate fluorescently labeled infrared secondary antibodies, washed again three times with TBS-T, and assessed using an Odyssey CLx Imager (LI-COR)[6],[15]. EWS502 cells were lysed with Cell Lysis Buffer (Cell Signaling Technology) supplemented with cOmplete protease inhibitors (Roche). Proteins were separated using SDS-PAGE gels and transferred to PVDF membranes, which were blocked with 5% milk in TBS-T and incubated with primary antibodies overnight. Membranes were washed five times with TBS-T, incubated with the appropriate horseradish peroxidase-conjugated secondary antibodies, washed again five times with TBS-T, and imaged. The following primary antibodies were employed in this study: HA (Cell Signaling Technology #3724 and #2367, dilution at 1:1000), phospho-ERK1/2 T202/Y204 (Cell Signaling Technology #4370, dilution at 1:1000), ERK1/2 (Cell Signaling Technology #4696, dilution at 1:1000), phospho-AKT S473 (Cell Signaling Technology #4060, dilution at 1:1000), AKT (Cell Signaling Technology #2920, dilution at 1:1000), FKBP12 (Abcam #ab24373, dilution at 1:1000), GFP (Cell Signaling Technology #2555, dilution at 1:1000), FLI (Abcam #ab15289, dilution at 1:2000), NKX2-2 (Abcam #ab187375, dilution at 1:1000), GAPDH (Cell Signaling Technology #2118, dilution at 1:3000), Vinculin (Cell Signaling Technology #13901, dilution at 1:3000), β-Actin (Cell Signaling Technology #58169, dilution at 1:3000), and α-Tubulin (Cell Signaling Technology #3873, dilution at 1:5000). Species-specific fluorescently labeled infrared secondary antibodies including IRDye 680LT anti-Mouse IgG (LI-COR #926-68020, dilution at 1:5000), IRDye 800CW anti-Mouse IgG (LI-COR #926-32210, dilution at 1:5000), IRDye 680LT anti-Rabbit IgG (LI-COR #926-68021, dilution at 1:5000), and IRDye 800CW anti-Rabbit IgG (LI-COR #926-32211, dilution at 1:5000) and peroxidase-linked secondary antibodies including anti-Mouse IgG (Thermo Fisher Scientific #45000680, dilution at 1:5000) and anti-Rabbit IgG (Thermo Fisher Scientific #45000682, dilution at 1:5000) were employed as appropriate.

[2] = tested on: MED14; design: method as in PMID 32483291; conditions: HCT116 cells; cited from earlier work
[3] = Pharmacokinetic evaluation in mice; type: in vivo, C57BL/6J male mice; conditions: for exposure (AUCinf) / half-life (T1/2): intraperitoneal administration at 10 mg kg^−1
Excerpt: For IP injections, dTAG-13 and dTAG^V-1 were formulated by dissolving into DMSO and then diluting with 20% solutol (Sigma): 0.9% sterile saline (Moltox) (w:v) with the final formulation containing 5% DMSO. […] Formulations were stable at room temperature for 7 days. For IV injections, dTAG-13 and dTAG^V-1 were formulated by dissolving into DMSO and then diluting with 5% solutol (Sigma): 0.9% sterile saline (Moltox) (w:v) with the final formulation containing 5% DMSO. All procedures for PK studies were compliant with ethical regulations for animal testing and research, and were approved by and performed in accordance with standards of the Institute Animal Care and Use Committee (IACUC) at Scripps Florida. Housing conditions for mice at Scripps Florida were as follows: lights on = 7 AM, lights off = 7 PM, average ambient temperature = 72 °F, and average humidity = 45%. PK was assessed in 8-week-old C57BL/6J male mice (Jackson Laboratory, #000664) with blood collected at 0.08, 0.25, 0.5, 1, 2, 4, 6, and 8 h (2 mg kg^−1 dTAG-13 intravenous (IV) tail vein, 10 mg kg^−1 dTAG-13 intraperitoneal (IP), and 2 mg kg^−1 dTAG^V-1 IV tail vein administrations) and 0.25, 0.5, 1, 2, 4, 6, 8, 24 and 48 h (2 mg kg^−1 dTAG^V-1 IP and 10 mg kg^−1 dTAG^V-1 IP administrations). Plasma was generated by centrifugation and plasma concentrations were determined by LC-MS/MS following the mass transition 49600à340 AMU. PK parameters were calculated using Phoenix WinNonlin to determine peak plasma concentration (Cmax), oral bioavailability (%F), exposure (AUC), half-life (t1/2), clearance (CL), and volume of distribution (Vd).

[4] = male, C57BL/6J, mouse, plasma, IP, 2 mg kg-1
[5] = male, C57BL/6J, mouse, plasma, IP, 10 mg kg-1
[6] = male, C57BL/6J, mouse, plasma, IV, 2 mg kg-1

SMILES: CCC(C(=O)N1CCCCC1C(=O)OC(CCc1ccc(OC)c(OC)c1)c1ccccc1OCC(=O)NCCCCCCC(=O)NC(C(=O)N1CC(O)CC1C(=O)NC(C)c1ccc(-c2scnc2C)cc1)C(C)(C)C)c1cc(OC)c(OC)c(OC)c1 (stereo not drawn) [dTAG^V-1-NEG]
KRASG12V degradation, immunoblot [1]: not induced

SMILES: CC[C@H](C(=O)N1CCCC[C@H]1C(=O)O[C@H](CCc1ccc(OC)c(OC)c1)c1ccccc1OCC(=O)NCCCCCCC(=O)N[C@H](C(=O)N1C[C@H](O)C[C@H]1C(=O)N[C@@H](C)c1ccc(-c2scnc2C)cc1)C(C)(C)C)c1cc(OC)c(OC)c(OC)c1 [dTAG^V-1]
KRASG12V degradation, immunoblot [1]: rapid KRAS^G12V degradation
Degradation of MED14 [2]: effective degradation
CL ([3]; IP, 2 mg kg-1): 0.642 L/h/kg
CL ([3]; IP, 10 mg kg-1): 0.543 L/h/kg
exposure (AUCinf) [3]: 18,517 h ng mL^−1
half-life (T1/2) [3]: 4.43 h
AUC(0-inf) [3, 4]: 3.14 µg·h/mL
AUC(0-t) [3, 4]: 2.25 µg·h/mL
half-life [3, 4]: 3.64 h
Cmax ([3]; male, C57BL/6J, mouse, plasma, IP, 2 mg kg-1, read-out: Cmax): 0.595 µg/mL
Tmax ([3]; male, C57BL/6J, mouse, plasma, IP, 2 mg kg-1, read-out: Tmax): 1.67 h
AUC(0-inf) [3, 5]: 18.5 µg·h/mL
AUC(0-t) [3, 5]: 18.1 µg·h/mL
half-life [3, 5]: 4.43 h
Cmax ([3]; male, C57BL/6J, mouse, plasma, IP, 10 mg kg-1, read-out: Cmax): 2.12 µg/mL
Tmax ([3]; male, C57BL/6J, mouse, plasma, IP, 10 mg kg-1, read-out: Tmax): 2 h
AUC(0-inf) [3, 6]: 3.33 µg·h/mL
AUC(0-t) [3, 6]: 3.25 µg·h/mL
clearance [3, 6]: 0.606 L/h/kg
half-life [3, 6]: 3.02 h
Cmax ([3]; male, C57BL/6J, mouse, plasma, IV, 2 mg kg-1, read-out: Cmax): 7.78 µg/mL
Tmax ([3]; male, C57BL/6J, mouse, plasma, IV, 2 mg kg-1, read-out: Tmax): 0.08 h
Vd ([3]; male, C57BL/6J, mouse, plasma, IV, 2 mg kg-1, read-out: Vss): 0.56 L/kg

AUCinf ([3]; IP, 10 mg kg-1): 6.14 µg·h/mL
AUClast ([3]; IP, 10 mg kg-1): 5.619 µg·h/mL
CL ([3]; IP, 10 mg kg-1): 1.68 L/h/kg
Cmax ([3]; IP, 10 mg kg-1): 1.263 µg/mL
T1/2 ([3]; IP, 10 mg kg-1): 2.41 h
Tmax ([3]; IP, 10 mg kg-1): 2.00 h
AUCinf ([3]; IV, 2 mg kg-1): 1.253 µg·h/mL
AUClast ([3]; IV, 2 mg kg-1): 1.242 µg·h/mL
CL ([3]; IV, 2 mg kg-1): 1.95 L/h/kg
Cmax ([3]; IV, 2 mg kg-1): 2.373 µg/mL
T1/2 ([3]; IV, 2 mg kg-1): 1.46 h
Tmax ([3]; IV, 2 mg kg-1): 0.08 h
Vss ([3]; IV, 2 mg kg-1): 1.8 L/kg
exposure (AUCinf) [3]: 6140 ng·h/mL
half-life (T1/2) [3]: 2.41 h
SMILES: CC[C@H](C(=O)N1CCCC[C@H]1C(=O)O[C@H](CCc1ccc(OC)c(OC)c1)c1ccccc1OCC(=O)NCCCCCCOc1cccc2c1C(=O)N(C1CCC(=O)NC1=O)C2=O)c1cc(OC)c(OC)c(OC)c1 (stereo partly drawn) [dTAG-13]
